In US20240342195A1, “AGENT FOR COMBINATION USE COMPRISING T CELL AND/OR B CELL ACTIVITY REGULATOR” (TOKAI UNIVERSITY EDUCATIONAL SYSTEM, priority 2021, published 2024):
Entries after “also recorded” stand apart in the source; their conditions may differ.

Tests used:
PBMC-NOG-hIL-4-Tg mouse = assay: transplantation of P4/COR-cultured PBMCs to NOG-hIL-4-Tg mouse immunized with CH401MAP; assay type: in vivo
[1] = test system: B cell (CD19 gated) in human PBMCs; assay: atezolizumab addition experiment, PD-L1/PD-1 expression on B cell by FCM; assay type: cell-based; conditions: TSST-1, 3 days
Description: (§1) As for an experiment of atezolizumab addition, 0 to 200 μM P4 or COR, 1 μM TSST-1, and 100 μg/mL atezolizumab were added to PBMCs, and the resultant was cultured for 72 hours at 37° C. in 5% CO2, followed by analysis by FCM.

[2] = test system: Hu-PBMC-NOG (GVHD onset model); assay: GVHD onset model: human PBMCs transplanted to NOG mouse, P4 or COR administered subcutaneously; assay type: in vivo; conditions: 4 weeks
Description: In the analysis using the GVHD model, PBMCs prepared in the same manner as described above were washed with PBS, and 2.5×10^6 PBMCs were intravenously transplanted to each 8- to 9-week-old NOG mouse. […] At the same time as the administration, the weight was measured. After 4 weeks, the mouse was anesthetized to collect heart blood, and euthanized. From various lymphoid organs excised, human cells were prepared, hemolyzed, and then subjected to FCM. Besides, the lung and the liver were excised, and immunohistochemically stained as follows. A tissue of the mouse was immobilized with 20% formalin (Wako Pure Chemical Industries, Ltd.), and embedded in paraffin. The obtained paraffin block was sliced, and the resultant was subjected to deparaffinization, mounted on a slide glass, and stained with hematoxylin and eosin (HE). In immunohistochemical staining with an anti-human CD45 antibody, the slide was subjected to a heat treatment at 97° C. for 20 minutes, and subjected to an endogenous peroxidase treatment through a reaction with 0.3% H2O2/MetOH at room temperature for 10 minutes. Thereafter, the resultant was blocked with 1% goat serum, and anti-human CD45 (Dako) was added thereto, followed by a reaction overnight at 4° C. The resultant slide was washed 3 times with 0.01 M PBS for 5 minutes, and colored with a DAB solution. The resultant was washed with running water for 3 minutes, and stained with hematoxylin, followed by dehydration and penetration/encapsulation.

[3] = test system: Human peripheral blood mononuclear cells (PBMCs); assay: number of cells of TSST-1-stimulated PBMCs cultured with P4 or COR; assay type: cell-based; conditions: PBMCs + TSST-1; 3 days; high concentration
Description: (§2) The PBMCs (final concentration: 1×10^6/mL) were cultured for 3 days at 37° C. in 5% CO2 in 10% FCS-containing RPMI 1640 to which P4 or COR was added in various concentrations with stimulation by 1 μg/mL of toxic shock syndrome toxin-1 (TSST-1). These cells were collected, washed with PBS, and dispensed into a Fisher tube in an amount of 1×10^6 cells/tube. For analysis of a human cell surface marker, a fluorescent-labeled anti-human monoclonal antibody (mAbs) was used. The cells were stained with the mAbs, a reaction was performed for 15 minutes at 4° C., and the resultant was washed with PBS containing 1% (w/v) BSA. Then, the resultant was analyzed by FACS Fortessa, or FACS Verse (BD Bioscience, Franklin Lakes, NJ). In the analysis, a leukocyte gated or lymphocyte gated cells were further gated by expression of human CD45, and then the analysis was performed. A culture supernatant was collected, and 25 μL thereof was dispensed to quantitatively determine cytokine with Legend Plex™ kit from BioLegend.

[4] = test system: CD4 and CD8 T cells in PBMCs; assay: restimulation experiment (transient vs continuous P4/COR), PD-1/PD-L1 on T cells; assay type: cell-based, human; conditions: CD4 and CD8 T cells, TSST-1 3 days
Description: (§3) In a restimulation experiment, PBMCs were cultured for 6 hours at 37° C. in 5% CO2 in 10% FCS-containing RPMI 1640 to which 200 μM P4 or COR was added. These cells were washed, adjusted to a final concentration of 1×10^6/mL, and cultured again in the presence or absence of 200 μM P4 or COR with stimulation by 1 μM TSST-1. After 72 hours, the resultant cells were collected to be analyzed by FCM.

B cell in PBMCs [5] = assay: restimulation experiment (transient vs continuous P4/COR), PD-L1 on B cells; assay type: cell-based, human; conditions: TSST-1 3 days
Description: as §3

[6] = test system: Human peripheral blood mononuclear cells (PBMCs); assay: cytokine production in PBMCs activated in the presence of P4; assay type: cell-based; conditions: 0 to 200 μM; PBMCs + TSST-1; 3 days
Description: as §2

HEK293 = assay: proliferating ability of cell line cultured with P4 or COR; assay type: cell-based, human; conditions: 200 μM, cultured 10 days
Description: (§4) Each of human choriocarcinoma cell line JEG-3, BeWo, and embryonic kidney cell line HEK293 was cultured for 10 days at 37° C. in 5% CO2 in a 10% Fetal Calf Serum (FCS)-containing DMEM (Gibuco) to which water-soluble progesterone (P4; water soluble) (Sigma) or cortisol (COR) (Sigma) was added in various concentrations. Each of mouse myeloma cell line P3-X63-Ag8-U1 (P3X) and mouse lymphoma cell line A20 was cultured for 3 days at 37° C. in 5% CO2 in 10% FCS-containing RPMI 1640 to which P4 or COR was added in various concentrations. Proliferation of the cells was evaluated by measuring the number of the cells.

BeWo = assay: as above; assay type: cell-based, human; conditions: 200 μM, cultured 10 days
Description: as §4

JEG-3 = assay: as above; assay type: cell-based, human; conditions: 200 μM, cultured 10 days
Description: as §4

[7] = test system: T cell (CD3 gated) in human PBMCs; assay: atezolizumab addition experiment, PD-L1/PD-1 expression on T cell by FCM; assay type: cell-based; conditions: 0 to 200 μM; TSST-1; 3 days
Description: as §1

A20 = assay: proliferating ability of cell line cultured with P4 or COR; assay type: cell-based, mouse; conditions: cultured 3 days
Description: as §4

P3-X63-Ag8-U1 (P3X) = assay: as above; assay type: cell-based, mouse; conditions: cultured 3 days
Description: as §4

B cell in PBMCs [8] = assay: FCM analysis of PD-1 on B cells of TSST-1-stimulated PBMCs; assay type: cell-based, human; conditions: TSST-1 and P4/COR stimulation; data not shown
Description: as §2

[9] = test system: CD4 and CD8 T cells in PBMCs; assay: FCM analysis of activation/exhaustion markers (CD25, PD-1) on T cells of TSST-1-stimulated PBMCs; assay type: cell-based, human; conditions: day 3
Description: as §2

[10] = 2 mg/head subcutaneously twice a week

`CC(=O)[C@H]1CC[C@H]2[C@@H]3CCC4=CC(=O)CC[C@]4(C)[C@H]3CC[C@]12C` [P4, progesterone] was tested, and the “engraftment ability of transplanted PBMCs” value (PBMC-NOG-hIL-4-Tg mouse; PBMCs cultured with 200 μM for 6 hours before transplantation, analysis after 4 weeks) was “equivalent to that of a control group”, the “specific antibody production (CH401MAP)” value (PBMC-NOG-hIL-4-Tg mouse; PBMCs cultured with 200 μM for 6 hours before transplantation, plasma after 4 weeks) was “maintained” and the “expression of CD62L in human cells engrafted into the spleen” value (PBMC-NOG-hIL-4-Tg mouse; treated PBMCs transplanted to NOG-hIL-4-Tg, 4 weeks) was “increased as compared with that in a CTRL mouse”. The “PD-L1 expression in a B cell” value ([1]; 0 to 200 μM) was “showed PD-L1 expression”, the “PD-L1 expression in a B cell” value ([1]; 20 μM) was “high” and the “CD8 T cells” value [2, 10] was “tend to increase”. The GVHD symptoms [2, 10] was “remarkably relieved”, the “number of spleen cells vs control” value [2, 10] was “rather increased” and the “weight loss by GVHD” value [2, 10] was “only slightly caused at an initial stage”. The “lymphocyte infiltration into a peripheral tissue such as the lung” value ([2]; anti-human CD45 immunohistochemical staining, 2 mg/head subcutaneously twice a week) was “tended to be suppressed”, the “CD62L expression in vivo” value ([2]; continuously administered to humanized NOG mouse of GVHD onset model) was “maintained CD62L expression in vivo for a long period of 4 weeks” and the “proliferation (number of cells)” value [3] was “suppressed”. The “ratio of later-phase activated (PD-1/PD-L1-positive) cells” value ([4]; continuously added, 200 μM) was “remarkably reduced”, the “activation (PD-1/PD-L1-positive cells) vs control group” value ([4]; transiently added (200 μM 6 hours, washed)) was “substantially equivalent to or greater than that of a control group” and the “PD-L1 expression in B cell” value (B cell in PBMCs [5]; continuous administration, 200 μM) was “suppressed PD-L1 expression”. The “PD-L1 expression in B cell” value (B cell in PBMCs [5]; transient addition (200 μM 6 hours, washed)) was “tended to maintain the expression; also recorded: tended to rather increase PD-L1 expression”, the “cytokine production in culture supernatant (10 cytokines of FIG. 4)” value [6] was “suppression of cytokine production was observed depending on the P4 concentration” and the cell proliferating ability (HEK293) was “little proliferated”. For the same molecule, the cell proliferating ability (BeWo) was “little proliferated”, the cell proliferating ability (JEG-3) was “little proliferated” and the “PD-1 expression in a T cell” value [7] was “reduction in PD-1 expression dependent on P4 concentration”. The “PD-L1 expression in a T cell” value [7] was “reduced”, the proliferation (A20; 20 μM or less) was “proliferation suppression was not observed” and the proliferation (A20; high concentration of 200 μm) was “proliferation suppression was observed”. The proliferation (P3-X63-Ag8-U1 (P3X); 20 μM or less) was “proliferation suppression was not observed”, the proliferation (P3-X63-Ag8-U1 (P3X); high concentration of 200 μm) was “proliferation suppression was observed” and the “PD-1 expression on B cell” value (B cell in PBMCs [8]) was “not increased”. For the same molecule, the “activation marker-negative (non-activated) T cells” value ([9]; 20 to 200 μM) was “increased depending on the P4 concentration”, the “later-phase activated (CD25-positive PD-1-positive) T cells” value ([9]; CD4 and CD8 T cells, 200 μM) was “minimally detected” and the “ratio of later-phase activated (CD25-positive PD-1-positive) T cells” value ([9]; CD4 and CD8 T cells, 20 to 200 μM) was “reduced dependent on the P4 concentration”.
